We go through six compounds from patent publication US11220498B2, “Neuroprotective aminothiazoles” (priority 2018, dated 2022).

The test system of assay [1] is SUMOylation of His-RanGap. The assay is described as follows: HTRF assay measuring increase in SUMOylation of His-RanGap. The format is biochemical. The conditions noted are these: His-RanGap substrate, SUMO-E1 (SAE), SUMO-E2 (UBC9), GST-SUMO; HTRF ratio 665/620; 30 min at room temperature; triplicate. As to the method: Assay measuring increase in SUMOylation of His-RanGap. We utilized an HTRF assay containing SUMO-E1 (SAE), SUMO-E2 (UBC9), GST-SUMO and His-RanGap, a known SUMO substrate, as well as the respective fluorescent antibodies. The assay was run in 1536-well plate format and the selected activators were chosen based on their ability to increase the FRET signal over a baseline level. In 1536-well white plates, 2 μl of phosphate buffered saline (assay buffer) was dispensed into columns 1 and 2, and 2 μl of Mixture 1 (37.5 nM E1 and 100 nM His-RanGap-1) in assay buffer (50 mM Tris-HCl pH 7.4, 0.3 mM DTT, 10 mM MgCl2, 0.005% Tween-20), was dispensed into columns 3-48. Using a pintool, 70 nl of 2 mM compounds in DMSO was dispensed to columns 5-48 and 70 nl of DMSO was dispensed to columns 1-4. Using the Thermo Scientific MultiDrop Combi, 2 μL of Mixture 2 (20 mM ATP, 12.5 nM E2 and 30 nM GST-SUMO in buffer) was dispensed to all wells and incubated for 30 min. at room temperature followed by 1 μl of 500 mM KF. Plates were read on a PheraStar in a HTRF mode (Ex: 337 nm; Em: 620/665 nm). The ratio of fluorescence 665 over 620 was utilized as a readout of the assay. Increase in SUMOylation was calculated by comparison to baseline level. Measurements were done in triplicate.
Background: In TR-FRET formats the signal depends on donor and acceptor labels being close together.

The test system of assay [2] is CSM14.1 cells. The assay is described as follows: Rescue of CSM14.1 neurons from thapsigargin-induced cell death (ATPlite cell viability). Format: cell-based. The note with it: Rattus norvegicus, Neuron, 10 μM compound, 2 h preincubation, 15 μM TG for 20 h, read-out: % CSM14.1 Cell Viability after treatment with 15 μM TG in Presence of 10 μM compound. The source says: Ability of compounds to rescue CSM14.1 neurons from thapsigargin-induced cell death. To assess the ability of the compounds to rescue neurons from ER stress-induced cell death, the rat striatel neuroprogenitor cell line CSM14.1 was used. Endoplasmic reticulum (ER) stress has been established as the major cause of neuronal loss in stroke, ischemia, and neurodegeneration (Tajiri, S.; Oyadomari, S.; Yano, S.; Morioka, M.; Gotoh, T.; Hamada, J. I.; Ushio, Y.; Mori, M. Cell Death Differ. 2004, 11, 403-415; Kohno, K.; Higuchi, T.; Ohta, S.; Kumon, Y.; Sakaki, S. Neurosci. Lett. 1997, 224, 17-20; ladecola, C.; Zhang, F.; Casey, R.; Nagayama, M.; Ross, M. E. J. Neurosci. 1997, 17, 9157-9164). Thus, we used the known ER stress-causing agent thapsigargin (TG) to model the compromised state in vitro. TG causes 100% cell death in most cases, and compounds were assessed for neuroprotection by measuring cell viability when dosed at 10 μM. CSM14.1 cells were recovered from cultures by trypsinization and plated in 96-well plates and incubated overnight at 32° C. 5 μl of test compound was added to achieve a final concentration of […]. Salubrinal and DMSO without compound were used as positive and negative controls, respectively. After 2 h of preincubation, TG-containing DMEM was added to give a final concentration of 15 μM and incubated for an additional 20 h. Cell viability was assessed by a cellular ATP content assay (ATPlite, PerkinElmer Life Sciences).
For orientation: Cellular ATP, detected with luciferase, serves as a proxy for viable cell number.

Assay [3] relates to BGMK cells. Kind of assay: cells. Format: cell-based. The note with it: read-out: % BGMK Cell Viability after treatment with 15 μM TG in Presence of 10 μM compound. The source says:
Ability of compounds to rescue BGMK cells from thapsigargin-induced cell death. To assess an orthogonal cell line and further validate the ability of SUMOylation activators to rescue varied cell types, the compounds were also profiled for cytoprotection in BGMK cells. Again, we used the known ER stress-causing agent thapsigargin (TG) to model the compromised state in vitro. BGMKs were subcultured at 1.2×10^4 cells/ml. Wells treated with compound were done so for 2 hr. […] After treatment, all cells were washed and fed fresh DMEM complete media and CCK-8 development vehicle, incubated for 2 hr, and absorbance was measured to assess viability. Controls were DMSO (0% viability) and Salubrinal (47% viability).

One may read the viability as the share of living cells, or the viability signal relative to a control.

Regarding `O=C(Nc1nc(-c2ccccn2)cs1)c1ccc(S(=O)(=O)N2CCCCC2)cc1` [Compound C1, 4-(1-Piperidinylsulfonyl)-N-[4-(2-pyridinyl)-2-thiazolyl]-benzamide], the “% INCREASE IN SUMOylation over endogenous baseline level” value (“% INCREASE IN SUMOylation” below) in assay [1] is “D (D = 40%-60% increase in SUMOylation over baseline levels)”. Besides, in assay [2], the viability at 10 µM was in the range of 40 to 50%.
`CC(=O)Nc1ccc(C(=O)Nc2nc(-c3cccnc3)cs2)cc1` [Compound C2, 4-(Acetylamino)-N-[4-(3-pyridinyl)-2-thiazolyl]-benzamide]: the “% INCREASE IN SUMOylation” value in assay [1] is listed as “A (A = 10%-20% increase)”.
For the compound `O=C(Nc1nc(-c2ccccn2)cs1)c1ccc2c(c1)OCCO2` [Compound C3, N-(4-(Pyridin-2-yl)thiazol-2-yl)-2,3-dihydrobenzo[b][1,4]dioxine-6-carboxamide], the viability at 10 µM in assay [3] lay within 51 to 60%. In addition, the “% INCREASE IN SUMOylation” value in assay [1] was “A (A = 10%-20% increase)”.
For `O=C(Nc1nc(-c2ccccn2)cs1)C1COc2ccccc2O1` (stereo not shown) [Compound C4, N-(4-(Pyridin-2-yl)thiazol-2-yl)-2,3-dihydrobenzo[b][1,4]dioxine-2-carboxamide], the viability at 10 µM in assay [3] was 61 to 85%; in assay [2], 61 to 70%. In assay [1], the “% INCREASE IN SUMOylation” value is on record as “D (D = 40%-60% increase in SUMOylation over baseline levels)”.
Take `O=C(Nc1nc(-c2ccccn2)cs1)c1ccc(Cl)s1` [Compound C5, 5-Chloro-N-(4-(pyridin-2-yl)thiazol-2-yl)thiophene-2-carboxamide]: in assay [3], the viability at 10 µM is 41 to 50%. The “% INCREASE IN SUMOylation” value in assay [1] is given as “B (B = 21%-30% increase)”.
On to `O=C(Nc1nc(-c2ccccn2)cs1)c1ccc(Br)s1` [Compound C6, 5-Bromo-N-(4-(pyridin-2-yl)thiazol-2-yl)thiophene-2-carboxamide], for which the results for the viability at 10 µM in assay [3] and in assay [2] were 61 to 85% and 61 to 70%, respectively. In addition, the “% INCREASE IN SUMOylation” value in assay [1] is recorded as “C (C = 31%-40% increase)”.
